“Also recorded” adds a separate entry of the source.
Tested on: MATH1-Prune1/ TP53-/-
Assay: Orthotopic implantation of MATH1-Prune1/TP53-/- cells in immunocompetent syngeneic mice, tumor growth
Type: in vivo, FVB WT mice
Details: for intracranial tumor growth (bioluminescence, photon emission) / BLI signal from the spinal cord (metastasis): 6 mg/kg/day intraperitoneally for 7 days, T17, HCl salt; for BLI signal from the spinal cord (metastasis): ex vivo
Method: MATH1-Prune1/ TP53-/- were implanted into the right cerebellar hemisphere of female (n.10) immunocompetent syngeneic mice model (5 weeks old, strain: FVB WT) to establish intracerebellar MATH1-Prune1/ TP53-/- models. Mice were anaesthetised with Ketamine/ Xylazine (87.5 mg/kg, 12.5 mg/kg, respectively). The mice were then placed in a stereotactic frame by hooking their incisors onto the frame hold. A small skin incision (length, 1 mm) and a burr hole (diameter, 0.7 mm) were created using a microsurgical drill (Fine Science Tools, Foster City, CA, USA of MATH1-Prune1/ TP53-/- (1.5 ×10^5) were resuspended in 10 µL PBS and injected slowly through the burr hole into the right cerebellar hemisphere (stereotactic coordinates from Bregma: anteroposterior, 5.5 mm; right lateral, 2.1 mm; dorsoventral 5.0 mm), with a steady force over 30 s, using a 10-AL, 26-gauge Hamilton Gastight model 1701RN syringe needle (SigmaAldrich) that was inserted perpendicular to the cranial surface. The incision was sutured using Safil polyglycolic acid synthetic absorbable suture (6/0). The mice were kept on a warming blanket after the surgery, to help them to maintain their body temperature. Their mobility and respiratory patterns were observed continuously, and once the mice had recovered from the anaesthesia; they were place in a sterile housing cage. The mice were monitored daily for development of potential neurological deficits. 10 days after the implantation of the cells, the mice were imaged, and tumour growth was evaluated by bioluminescence acquisition using an imaging system (IVIS 3D Illumina; Xenogen/ Caliper). For the acquisitions, the mice were anaesthetised by inhalational of isoflurane, and the D-luciferin (122799; PerkinElmer) (15 mg/mL stock) was injected intraperitoneally (100 µL per 10 g body weight). At 5 min from the luciferin injection, the mice were imaged for 3 min. To quantify the bioluminescence, the integrated fluxes of photons (p/s) within each area of interest were determined using the Living Images Software Package 3.2 (Xenogen-Perkin Elmer). […] After 17 days from tumour implantation (i.e., after one weeks of LEO-AA7.5(S)T treatment), the mice were sacrificed, and the organs were collected for immunohistochemistry and immunofluorescence analyses.
Paraffin sections of the tumor specimens (thickness, 3 µm) were deparaffinised and rehydrated by immersing the slides in Xylene Substitute (A5597; Sigma), as three washes for 5 min each, then serially in 100%, 95%, 70%, 50%, and 30% ethanol (two washes for 10 min, for each), and deionised water (two washes, for 5 min each). The washes were then followed by PBS, PBS containing 0.02% Triton-X 100 (215680010; Acros Organics), and PBS (two washes for 5 min, for each). For antigen retrieval, the slides were immersed in boiling 10 mM sodium citrate buffer (pH 6.0) using a microwave oven, and then maintained at sub-boiling temperature for 10 min. The slides were left to cool at room temperature for 30 min. The sections were then washed by immersion in distilled water for 5 min. To block endogenous peroxidase activity, the tissue sections were placed in a solution with 3.0% hydrogen peroxide in methanol for 15 min. Then, to decrease the nonspecific background fluorescence, the tissues were digested by treating them with a solution containing 0.2% trypsin (T2600000; Sigma-Aldrich) and 0.001% CaCl2 for 10 min at 37 °C, in a humidified chamber. The slides were then washed in PBS, PBS containing 0.02% Triton-X 100 (215680010; Acros Organics), and PBS (two washes for 5 min, for each). The tissue sections were blocked with 6% bovine serum albumin (A9418; Sigma), 5% fetal bovine serum (ECS0180L; Euroclone), and 20 mM MgCl2 in PBS containing 0.02% Triton-X 100, for 1 h at room temperature, and incubated overnight with the primary antibodies at 4 °C in a humidified chamber. […]

[1] = listed as (S)-(1-(4-((4-methoxybenzyl)amino)-1,3,5-triazin-2-yl)piperidin-3-yl)methanol HC

COc1ccc(CNc2ncnc(N3CCC[C@H](CO)C3)n2)cc1.Cl [LEO-AA7.5(S)T, (S)-(1-(4-((4-methoxybenzyl)amino)-1,3,5-triazin-2-yl)piperidin-3-yl)methanol HCl salt]
intracranial tumor growth (bioluminescence, photon emission): impairment of tumour growth | intracranial tumor growth (bioluminescence, photon emission) [1]: significantly decreased; also recorded: anti-tumorigenic action | BLI signal from the spinal cord (metastasis): decrease of metastasis | BLI signal from the spinal cord (metastasis) [1]: decreased intensity of BLI signal | immunosuppressive T cells (CD4+PD1+FOXP3+ and CD8+PD1+FOXP3+) in the tumor microenvironment (6 mg/kg/day, immunofluorescence of cerebellar tumor sections): reduced

From patent EP4361137A1, “PRUNE1 INHIBITORS AND THERAPEUTIC USE THEREOF” (CEINGE Biotecnologie Avanzate Franco Salvatore s.c. a r.l., priority 2022, dated 2024)
